How the values were obtained:
[1] = tested on: U138-MG human glioma cell; experiment: Cell proliferation analysis (MTT); type: cell-based; details: 10 µM, two days, MTT; for activity at 10 µM / inhibition at 10 µM: Homo sapiens, 48 h
Method: (§1) U87-MG and U138-MG human glioma cell, were incubated with 10% fetal bovine serum (FBS) (Gibco, 10500-064), 1% L-glutamine (Gibco, 25030-024), in a humidified incubator with 5% CO2 at 37 °C. The cells were contained in DMEM High Glucose (Gibco, 41966-029) supplemented with 1% penicillin-streptomycin (P/S) (Gibco 15140-122) solution. The cytotoxic effects of the target compounds on U87-MG and U138-MG cell lines were assessed using the MTT (Thiazolyl Blue Tetrazolium Bromide) method. 7×10^3 cells were seeded into a 96-well plate in 100 µl DMEM High Glucose 10% FBS and 1% P/S. 24 hours after cell incubation, each target compound was added at a dose of 10 µM and the drug treatment was carried out for two days. After the incubation period, 10 µL of MTT solution was added to each well (5 mg/ml in PBS). After 2 hours, MTT solutions were removed from the wells. Then, 100 µl DMSO was added, and mixed to dissolve the formazan crystals. Cell proliferation was analysed by measuring the absorbance of dissolved formazan at a wavelength of 570 nm.
(§2) IC50 values were determined using the same method as above wherein the cells were treated with the target compounds at different doses.

[2] = tested on: U87-MG human glioma cell; experiment: Cell proliferation analysis (MTT); type: cell-based; details: 10 µM, two days, MTT; for activity at 10 µM / inhibition at 10 µM: Homo sapiens, U-87 MG, 48 h
Method: as §1, §2

| Compound | activity at 10 µM [1] [%] | inhibition at 10 µM [1] [%] | activity at 10 µM [2] [%] | inhibition at 10 µM [2] [%] | Cell Proliferation (%) [1] [%] | Inhibition (%) [1] [%] | Cell Proliferation (%) [2] [%] | Inhibition (%) [2] [%] |
| --- | --- | --- | --- | --- | --- | --- | --- | --- |
| O=C1CCc2cc(OC(=O)Cc3ccccc3)ccc2N1 [TR-G007, 2-oxo-1,2,3,4-tetrahydroquinolin-6-yl 2-phenylacetate] | 82 | 18 | 91 | 9 |  |  |  |  |
| CCCn1cc(COc2ccc3c(c2)CCC(=O)N3)nn1 [TR-G082, 6-((1-propyl-1H-1,2,3-triazol-4-yl)methoxy)-3,4-dihydroquinolin-2(1H)-one] | 89 | 11 | 74 | 26 |  |  |  |  |
| O=C1CCc2cc(OCCCCOC(=O)c3ccccc3)ccc2N1 [TR-G013, 4-((2-oxo-1,2,3,4-tetrahydroquinolin-6-yl)oxy)butyl benzoate] | 78 | 22 | 71 | 29 |  |  |  |  |
| NNC(=O)COc1ccc2c(c1)CCC(=O)N2 [TR-G019, 2-((2-oxo-1,2,3,4-tetrahydroquinolin-6-yl)oxy)acetohydrazide] | 75 | 25 | 75 | 25 |  |  |  |  |
| O=C(COc1ccc2c(c1)CCC(=O)N2)N/N=C/c1cccc(Oc2ccc(Cl)cc2)c1 [TR-G138, (E)-N'-(3-(4-chlorophenoxy)benzylidene)-2-((2-oxo-1,2,3,4-tetrahydroquinolin-6-yl)oxy)acetohydrazide] |  | 35 |  | 50 |  |  |  |  |
| COc1ccccc1NC(=O)Oc1ccc2c(c1)CCC(=O)N2 [TR-G132, 2-oxo-1,2,3,4-tetrahydroquinolin-6-yl (2-methoxyphenyl)carbamate] | 73 | 27 | 78 | 22 |  |  |  |  |
| 2-oxo-1,2,3,4-tetrahydroquinolin-6-yl dimethylcarbamate [TR-G005] |  |  |  |  | 77 | 23 | 77 | 23 |
| O=C1CCc2cc(OCCCCc3nnnn3C3CCCCC3)ccc2N1Cc1ccc(Cl)cc1 [TR-G111, 1-(4-chlorobenzyl)-6-(4-(1-cyclohexyl-1H-tetrazol-5-yl)butoxy)-3,4-dihydroquinolin-2(1H)-one] |  | 9 |  | 32 | 91 |  | 68 |  |
| O=C1CCc2cc(OC(=O)c3cccc(F)c3)ccc2N1 [TR-G139, 2-oxo-1,2,3,4-tetrahydroquinolin-6-yl 3-flurobenzoate] | 83 | 17 | 71 | 29 |  |  |  |  |
| COc1ccc(C=NNC(=O)COc2ccc3c(c2)CCC(=O)N3)c(OC)c1 [TR-G022, N'-(2,4-dimethoxybenzylidene)-2-((2-oxo-1,2,3,4-tetrahydroquinolin-6-yl)oxy)acetohydrazide] | 75 | 25 | 98 | 2 |  |  |  |  |
| C=CC(=O)N(NC(=O)COc1ccc2c(c1)CCC(=O)N2)C(=O)C=C [TR-G040, N-acryloyl-N'-(2-((2-oxo-1,2,3,4-tetrahydroquinolin-6-yl)oxy)acetyl)acrylohydrazide] |  | 2 |  | 9 | 98 |  | 91 |  |
| COc1cc(NC(=O)COc2ccc3c(c2)CCC(=O)N3)cc(OC)c1OC [TR-G094, 2-((2-oxo-1,2,3,4-tetrahydroquinolin-6-yl)oxy)-N-(3,4,5-trimethoxyphenyl)acetamide] | 80 | 20 | 78 | 22 |  |  |  |  |
| O=C(OCCCCOc1ccc2c(c1)CCC(=O)N2CCCCOC(=O)c1ccccc1)c1ccccc1 [TR-G013A, 4-(6-(4-(benzoyloxy)butoxy)-2-oxo-3,4-dihydroquinolin-1(2H)-yl)butyl benzoate] | 53 | 47 | 46 | 54 |  |  |  |  |
| O=C(COc1ccc2c(c1)CCC(=O)N2)N/N=C1\C(=O)Nc2ccccc21 [TR-G038, (Z)-2-((2-oxo-1,2,3,4-tetrahydroquinolin-6-yl)oxy)-N'-(2-oxoindolin-3-ylidene)acetohydrazide] | 95 | 5 | 71 | 30 |  |  |  |  |
| CCOC(=O)CCn1cc(COc2ccc3c(c2)CCC(=O)N3)nn1 [TR-G079, ethyl 3-(4-(((2-oxo-1,2,3,4-tetrahydroquinolin-6-yl)oxy)methyl)-1H-1,2,3-triazol-1-yl)propanoate] | 112 | -12 | 94 | 6 |  |  |  |  |
| O=C1CCc2cc(OCC(=O)N3CCN(c4ccc(C(F)(F)F)cc4)CC3)ccc2N1 [TR-G087, 6-(2-oxo-2-(4-(4-(trifluoromethyl)phenyl)piperazin-1-yl)ethoxy)-3,4-dihydroquinolin-2(1H)-one] | 55 | 45 | 58 | 42 |  |  |  |  |
| O=C(COc1ccc2c(c1)CCC(=O)N2)NN=Cc1ccc(Cl)cc1 [TR-G021, N'-(4-chlorobenzylidene)-2-((2-oxo-1,2,3,4-tetrahydroquinolin-6-yl)oxy)acetohydrazide] | 60 | 40 | 65 | 36 |  |  |  |  |
| CCOC(=O)CN1C(=O)CCc2cc(OCCCCc3nnnn3C3CCCCC3)ccc21 [TR-G102, ethyl 2-(6-(4-(1-cyclohexyl-1H-tetrazol-5-yl)butoxy)-2-oxo-3,4-dihydroquinolin-1(2H)-yl)acetate] | 49 | 51 | 66 | 35 |  |  |  |  |
| O=C(COc1ccc2c(c1)CCC(=O)N2)N/N=C/C1CCCCC1 [TR-G029, (E)-N'-(cyclohexylmethylene)-2-((2-oxo-1,2,3,4-tetrahydroquinolin-6-yl)oxy)acetohydrazide] | 68 | 32 | 82 | 18 |  |  |  |  |
| COc1ccc(C(=O)Oc2ccc3c(c2)CCC(=O)N3)c(OC)c1 [TR-G009, 2-oxo-1,2,3,4-tetrahydroquinolin-6-yl 2,4-dimethoxybenzoate] | 87 | 13 | 72 | 28 |  |  |  |  |
| O=C1CCc2cc(OS(=O)(=O)c3ccc(C(F)(F)F)cc3)ccc2N1 [TR-G073, 2-oxo-1,2,3,4-tetrahydroquinolin-6-yl 4-(trifluoromethyl)benzenesulfonate] | 94 | 6 | 87 | 13 |  |  |  |  |
| O=C1CCc2cc(OCCCN3C(=O)c4ccccc4C3=O)ccc2N1 [TR-G049, 2-(3-((2-oxo-1,2,3,4-tetrahydroquinolin-6-yl)oxy)propyl)isoindoline-1,3-dione] |  | 37 |  | 24 | 63 |  | 76 |  |
| O=C1CCc2cc(OC(=O)Nc3ccc([N+](=O)[O-])cc3)ccc2N1 [TR-G133, 2-oxo-1,2,3,4-tetrahydroquinolin-6-yl (4-nitrophenyl)carbamate] | 77 | 23 | 93 | 7 |  |  |  |  |
| O=C(COc1ccc2c(c1)CCC(=O)N2)Nc1ccc(F)c(Cl)c1 [TR-G075, N-(3-chloro-4-fluorophenyl)-2-((2-oxo-1,2,3,4-tetrahydroquinolin-6-yl)oxy)acetamide] | 85 | 15 | 68 | 32 |  |  |  |  |
| Cc1ccc(CN2C(=O)CCc3cc(OCCCCc4nnnn4C4CCCCC4)ccc32)cc1 [TR-G104, 6-(4-(1-cyclohexyl-1H-tetrazol-5-yl)butoxy)-1-(4-methylbenzyl)-3,4-dihydroquinolin-2(1H)-one] | 83 | 17 | 49 | 51 |  |  |  |  |
| O=C1CCc2cc(OC(=O)CCl)ccc2N1 [TR-G016, 2-oxo-1,2,3,4-tetrahydroquinolin-6-yl 2-chloroacetate] | 95 | 5 | 78 | 22 |  |  |  |  |
| CC(=O)OCC1OC(n2cc(COc3ccc4c(c3)CCC(=O)N4)nn2)[C@H](OC(C)=O)[C@@H]1OC(C)=O (stereo partly drawn) [TR-G058, (3R,4R)-2-(acetoxymethyl)-5-(4-(((2-oxo-1,2,3,4-tetrahydroquinolin-6-yl)oxy)methyl)-1H-1,2,3-triazol-1-yl)tetrahydrofuran-3,4-diyl diacetate] | 100 | 0 | 73 | 27 |  |  |  |  |
| Cc1ccccc1NC(=O)Oc1ccc2c(c1)CCC(=O)N2 [TR-G134, 2-oxo-1,2,3,4-tetrahydroquinolin-6-yl-o-tolylcarbamate] |  | 27 |  | 30 | 73 |  | 70 |  |
| O=C1CCc2cc(OCc3cn(Cc4ccc(F)cc4)nn3)ccc2N1 [TR-G086, 6-((1-(4-fluorobenzyl)-1H-1,2,3-triazol-4-yl)methoxy)-3,4-dihydroquinolin-2(1H)-one] | 79 | 21 | 79 | 21 |  |  |  |  |

— patent EP4644375A1, “SUBSTITUTED HYDROQUINOLINES FOR THE TREATMENT OF GLIOBLASTOMA MULTIFORME” (Molius Saglik Teknolojileri Anonim Sirketi, priority 2024, dated 2025)
